Measurements: patent publication US9295732B2, “Conjugated TLR7 and/or TLR8 and TLR2 polycationic agonists” (CAYLA, priority 2013, dated 2016)
Several values for one entry are separate records, joined by “and”; a condition that tells them apart may be missing. Identical values can stand only once.

Assays:
[1] = tested on: B16-F1 tumor; test: In vivo mouse B16-F1 tumor model, molecule alone; design: species or system C57BL/6 mice; conditions: by day 42, intra-tumoral injections, FIG. 8B
Experimental: Measurements were performed under gas anesthesia.
The second group received intra-tumoral injections of CL413 molecule alone (a TLR7-TLR2 Pam2CSK4-based molecule). Third and forth groups received intra-tumoral injections of the TLR2 ligand, Pam2CSK4 alone, and the TLR7 ligand alone, respectively. A fifth group received a combined treatment of Pam2CSK4 and TLR7 ligand, in solution at the equivalent molecule quantity of the respective TLR2 and TLR7 moieties in CL413 (in 100 μl Bionolyte G5® with Pluronic® F-68 2%) for a total of 3 injections.

[2] = biological target: T1, human TLR7 (Homo sapiens, UniProt Q9NYK1); test: HEK-Blue hTLR7 NF-κB/AP-1 SEAP reporter assay; type: cell-based; conditions: HEK-Blue hTLR7 cells, 10 μg/mL to 10 pg/ml, 24 hours, OD at 655 nm, FIG. 1
T1 construct: host or cells: HEK293 (HEK-Blue™ hTLR7)
T1 sequence (Q9NYK1 27-1049): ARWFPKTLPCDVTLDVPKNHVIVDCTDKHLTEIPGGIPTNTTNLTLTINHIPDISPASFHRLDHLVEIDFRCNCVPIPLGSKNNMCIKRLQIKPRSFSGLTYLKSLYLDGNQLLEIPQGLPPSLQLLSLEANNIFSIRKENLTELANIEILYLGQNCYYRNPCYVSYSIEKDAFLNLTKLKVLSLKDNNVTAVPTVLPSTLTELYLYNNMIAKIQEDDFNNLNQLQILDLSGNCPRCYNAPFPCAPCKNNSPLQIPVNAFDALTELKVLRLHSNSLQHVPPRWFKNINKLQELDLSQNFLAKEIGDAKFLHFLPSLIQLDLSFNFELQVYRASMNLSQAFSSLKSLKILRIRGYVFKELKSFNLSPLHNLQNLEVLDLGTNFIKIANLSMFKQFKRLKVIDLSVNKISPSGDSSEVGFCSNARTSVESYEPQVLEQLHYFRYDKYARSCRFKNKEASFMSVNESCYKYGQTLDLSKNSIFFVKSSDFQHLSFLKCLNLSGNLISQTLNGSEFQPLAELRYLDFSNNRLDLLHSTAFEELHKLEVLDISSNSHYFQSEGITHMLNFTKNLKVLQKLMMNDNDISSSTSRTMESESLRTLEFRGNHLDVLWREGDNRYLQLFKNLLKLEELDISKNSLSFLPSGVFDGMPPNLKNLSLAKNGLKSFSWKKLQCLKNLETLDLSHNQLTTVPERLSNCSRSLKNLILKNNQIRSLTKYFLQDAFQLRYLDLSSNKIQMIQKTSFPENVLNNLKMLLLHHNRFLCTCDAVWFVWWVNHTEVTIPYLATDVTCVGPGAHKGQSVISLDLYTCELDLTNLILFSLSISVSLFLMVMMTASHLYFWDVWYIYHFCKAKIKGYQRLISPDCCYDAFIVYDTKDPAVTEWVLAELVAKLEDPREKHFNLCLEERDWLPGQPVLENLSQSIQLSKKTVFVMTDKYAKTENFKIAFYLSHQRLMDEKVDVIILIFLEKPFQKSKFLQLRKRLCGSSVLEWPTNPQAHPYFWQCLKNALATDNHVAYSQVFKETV
Experimental: (§1) Cell-based assays were carried out using TLR7 and TLR2 reporter cell lines (InvivoGen). The reporter cell lines are engineered HEK293 cells, a human embryonic kidney cell line (ATCC, CRL-1573) that stably express either murine TLR7 (HEK-Blue™ mTLR7) or human TLR7 (HEK-Blue™ hTLR7) or human TLR2 (HEK-Blue™ hTLR2) with an NF-κB-inducible secreted embryonic alkaline phosphatase (SEAP) as the reporter gene. The SEAP reporter gene is under the control of the NF-κB and AP-1-inducible promoter, which, upon treatment with a corresponding TLR ligand and activation of NF-κB and AP-1, induces the production of SEAP. Detection of SEAP is measured following culturing cells in HEK-Blue™ Detection media (InvivoGen). HEK-Blue™ Detection contains a SEAP substrate that when hydrolysed by SEAP produces a colorimetric change allowing for detection of SEAP as the protein is secreted. […] These assays were carried out using RAW-Blue™ Cells (InvivoGen), derived from RAW 264.7 mouse leukemic monocyte macrophage cell line (ATCC, CRL 2278) stably overexpressing a NF-B/AP-1 inducible SEAP reporter constructs.
(§2) To perform the assay, cells were seeded on 96 well microliter plates at 50,000 or 100,000 cells per well for HEK-Blue™ Cells and RAW-Blue™ Cells respectively, and cultured at 37° C. in the presence of the conjugated compounds The TLR7-TLR2 polyamine molecules were prepared as follows: First, stock solutions of the conjugated compounds of the invention were prepared in ethanol or water to a concentration of 10 mg/ml.
(§3) The working dilutions of the conjugated TLR7-TLR2 polyamine agonists made up in water or PBS were directly added to the reporter cell lines at a final concentration ranging from 10 μg/mL to 10 pg/ml and incubated at 37° C. for 24 hours. After 24 hours of incubation, the effect on reporter gene activity was determined by reading the OD at 655 nm using iMark™ Microplate Reader (BIO-RAD).

[3] = tested on: plasmid DNA (pDNA); test: Gel shift (mobility shift) assay of pDNA complexation; type: binding; conditions: pDNA:molecule ratio 3:24 (w:w), 0.8% agarose gel, compared to pDNA alone
In short: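 Complexes of pDNA with TLR7-TLR2 polyamine molecules run on 0.8% agarose in TAE at 135 V for 21 min, ethidium bromide stained and viewed under UV. Complexation scored as partial or complete retardation of pDNA migration versus pDNA alone, complexed pDNA appearing as a smear in wells.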

[4] = tested on: endogenous TLR2 and TLR7 in RAW-Blue™ Cells; test: RAW-Blue Cells NF-κB/AP-1 SEAP reporter assay; type: cell-based, mouse; conditions: 24 hours, OD at 655 nm, FIG. 4
Experimental: as §1, §2, §3

[5] = biological target: T2, human TLR2 (Homo sapiens, UniProt O60603); test: HEK-Blue hTLR2 NF-κB/AP-1 SEAP reporter assay; type: cell-based; conditions: HEK-Blue hTLR2 cells, 10 μg/mL to 10 pg/ml, 24 hours, OD at 655 nm, FIG. 3
T2 construct: host or cells: HEK293 (HEK-Blue™ hTLR2)
Experimental: as §1, §2, §3

[6] = biological target: T3, murine TLR7 (Mus musculus, UniProt P58681); test: HEK-Blue mTLR7 NF-κB/AP-1 SEAP reporter assay; type: cell-based; conditions: HEK-Blue mTLR7 cells, 10 μg/mL to 10 pg/ml, 24 hours, OD at 655 nm, FIG. 2
T3 construct: host or cells: HEK293 (HEK-Blue™ mTLR7)
T3 sequence (P58681 27-1050): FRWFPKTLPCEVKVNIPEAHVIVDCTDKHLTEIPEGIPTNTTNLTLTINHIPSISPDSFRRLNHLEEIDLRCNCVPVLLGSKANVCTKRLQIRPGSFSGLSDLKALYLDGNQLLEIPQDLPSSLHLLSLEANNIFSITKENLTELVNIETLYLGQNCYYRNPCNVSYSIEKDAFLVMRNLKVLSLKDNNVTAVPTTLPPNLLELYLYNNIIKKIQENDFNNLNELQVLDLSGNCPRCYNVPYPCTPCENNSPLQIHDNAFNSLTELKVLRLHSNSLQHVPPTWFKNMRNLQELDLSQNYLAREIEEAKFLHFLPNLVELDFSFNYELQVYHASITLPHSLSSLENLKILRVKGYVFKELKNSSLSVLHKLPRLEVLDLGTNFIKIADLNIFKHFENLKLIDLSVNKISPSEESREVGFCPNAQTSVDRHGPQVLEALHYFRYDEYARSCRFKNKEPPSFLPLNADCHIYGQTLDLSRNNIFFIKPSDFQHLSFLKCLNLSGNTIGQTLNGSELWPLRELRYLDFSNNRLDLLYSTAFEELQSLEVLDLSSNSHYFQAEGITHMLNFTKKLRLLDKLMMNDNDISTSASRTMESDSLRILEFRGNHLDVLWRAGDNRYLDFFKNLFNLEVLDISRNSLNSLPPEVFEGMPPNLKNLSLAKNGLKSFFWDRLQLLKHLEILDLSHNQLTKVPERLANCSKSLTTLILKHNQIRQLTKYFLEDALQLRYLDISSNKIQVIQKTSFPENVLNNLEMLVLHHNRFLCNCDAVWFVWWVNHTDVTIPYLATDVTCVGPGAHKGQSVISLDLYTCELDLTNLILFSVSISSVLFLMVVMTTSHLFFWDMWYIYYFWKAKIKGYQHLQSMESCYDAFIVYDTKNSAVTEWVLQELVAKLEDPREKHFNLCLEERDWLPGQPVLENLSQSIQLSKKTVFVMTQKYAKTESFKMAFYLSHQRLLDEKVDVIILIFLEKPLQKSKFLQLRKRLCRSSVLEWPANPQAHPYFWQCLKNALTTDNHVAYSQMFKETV
Experimental: as §1, §2, §3

[7] = Nanoparticle (lipoplex) size by dynamic light scattering; conditions: 25° C., triplicate;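 further: lipoplexes of TLR7-TLR2 polyamine conjugates with plasmid DNA, formed over 30 min at room temperature in serum-free medium or 5% glucose, diameter in nm, PDI dimensionless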

T2 sequence (O60603 21-784): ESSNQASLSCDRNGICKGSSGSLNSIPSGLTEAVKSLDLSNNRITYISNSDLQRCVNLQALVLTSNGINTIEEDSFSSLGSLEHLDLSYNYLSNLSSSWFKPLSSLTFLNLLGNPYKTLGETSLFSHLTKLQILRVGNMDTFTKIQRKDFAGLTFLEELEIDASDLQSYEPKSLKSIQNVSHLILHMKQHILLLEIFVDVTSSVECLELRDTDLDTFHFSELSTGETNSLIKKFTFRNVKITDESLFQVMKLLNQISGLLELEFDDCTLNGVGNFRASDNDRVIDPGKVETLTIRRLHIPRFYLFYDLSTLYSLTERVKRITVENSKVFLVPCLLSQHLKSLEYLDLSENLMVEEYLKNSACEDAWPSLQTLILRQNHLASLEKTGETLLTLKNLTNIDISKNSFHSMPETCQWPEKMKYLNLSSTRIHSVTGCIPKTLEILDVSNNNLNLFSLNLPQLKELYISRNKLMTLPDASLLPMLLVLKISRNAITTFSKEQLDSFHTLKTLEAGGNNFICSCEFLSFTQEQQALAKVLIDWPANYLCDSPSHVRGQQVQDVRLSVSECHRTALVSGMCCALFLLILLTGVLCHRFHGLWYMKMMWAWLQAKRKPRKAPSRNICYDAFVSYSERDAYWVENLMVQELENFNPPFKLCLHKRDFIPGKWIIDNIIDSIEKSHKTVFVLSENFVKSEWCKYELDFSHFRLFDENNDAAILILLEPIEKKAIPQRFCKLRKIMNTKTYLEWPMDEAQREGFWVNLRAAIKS

| Compound | mice still alive (survival) [1] | ability to activate hTLR7 [2] | ability to complex pDNA (retardation of pDNA migration in agarose gel) [3] | ability to activate endogenous TLR2 and TLR7 in RAW-Blue Cells [4] | ability to activate hTLR2 [5] | ability to activate mTLR7 [6] | Mean Diameter ([7]; complexes with pDNA 3:24 (w:w), dynamic light scattering) | PDI ([7]; polydispersity index of complexes with pDNA 3:24 (w:w)) |
| --- | --- | --- | --- | --- | --- | --- | --- | --- |
| dipalmitoyl-S-glyceryl cysteine-serine-(lysine)4 [Pam2CSK4, reference compound] | 60% | – | – | – | – | – | – | – |
| CCCCCCCCCCCCCCCC(=O)OCC(CSC[C@H](N)C(=O)N[C@@H](CCCCNC(=O)CNC(=O)c1ccc(Cn2c(O)nc3c(N)nc(NCCCC)nc32)cc1)C(=O)NCCCNCCCCNCCCN)OC(=O)CCCCCCCCCCCCCCC (stereo partly drawn) [CL475, (6R,9S)-6,23-diamino-9-(4-(2-(4-((6-amino-2-(butylamino)-8-hydroxy-9H-purin-9-yl)methyl)benzamido)acetamido)butyl)-7,10-dioxo-4-thia-8,11,15,20-tetraazatrico sane-1,2-diyl dipalmitate] | – | activate hTLR7 | inability to migrate through an agarose gel | activate endogenous TLR2 and TLR7 | activate hTLR2 | activate mTLR7 | 145.9 nm and 155.8 nm and 153.5 nm | 0.193 and 0.176 and 0.158 |
